Data published in patent US11945806B2, “Stabilization of amyloidogenic immunoglobulin light chains” (The Scripps Research Institute, priority 2019, dated 2024).

Molecular target: WIL-FL (Homo sapiens, UniProt P01721)
Assay: Unlabeled LC Protease Sensitivity Assay (proteinase K)
Type: biochemical
Settings: small molecule 10 μM, WIL-FL 5 μM, proteinase K 50 nM, 2 hours at 37° C.
Description: Unlabeled LC Protease Sensitivity Assay. WIL-FL (5 μM) in phosphate-buffered saline (PBS, pH 7.4)+0.02% Pluronic F-127 was incubated with proteinase K (50 nM) with small molecule (10 μM) in 1% DMSO vehicle, or vehicle alone. After 2 hours at 37° C., reactions were quenched with 2 mM phenylmethyl sulfonyl fluoride in methanol and centrifuged at 14,000 rpm for 2 minutes. Remaining WIL-FL was quantified by injecting 10 μL of the supernatant into a Waters Acquity H-Class Bio-UPLC (ultra performance liquid chromatography) instrument equipped with a BEH200 analytical size-exclusion column (1.7 μm, 4.6×150 mm) under isocratic conditions (0.2 mL/min, PBS+1 mM EDTA, 2400 psi backpressure, 15 min), monitoring absorbance at 280 nm. Activity of each compound is given as fold protection from protease=(A_compound−A_vehicle)/(A_no_protease−A_vehicle), where each “A” corresponds to peak integration of the respective treatment.

Row | SMILES | Protection (fold protection of LC from protease)
1 | CCN(CC)c1ccc2c(C)c(CCOC(=O)NCc3cccc(C(=N)NO)c3)c(=O)oc2c1 [Compound 170, 2-(7-(diethylamino)-4-methyl-2-oxo-2H-chromen-3-yl)ethyl (3-(N-hydroxycarbamimidoyl)benzyl)carbamate] | C (C ≥ 0.6)
2 | CCOC(=O)N1CCC(NC(=O)OCCc2c(C)c3ccc(N(CC)CC)cc3oc2=O)CC1 [Compound 105, Ethyl 4-(((2-(7-(diethylamino)-4-methyl-2-oxo-2H-chromen-3-yl)ethoxy)carbonyl)amino)piperidine-1-carboxylate] | B (3 ≤ B < 0.6)
3 | CCN(CC)c1ccc2c(C)c(CCNC(=O)NCc3nccc4ccccc34)c(=O)oc2c1 [Compound 290, 1-(2-(7-(diethylamino)-4-methyl-2-oxo-2H-chromen-3-yl)ethyl)-3-(isoquinolin-1-ylmethyl)urea] | C (C ≥ 0.6)
4 | Cc1cc(=O)oc2cc(C(=O)Nc3ccc4[nH]cnc4c3)ccc12 [Compound 238, N-(1H-benzo[d]imidazol-6-yl)-4-methyl-2-oxo-2H-chromene-7-carboxamide] | A (A < 0.3))
5 | CCN(CC)c1ccc2c(C)c(CCN3C(=O)NC4(CCN(C(=O)c5cnc[nH]5)C4)C3=O)c(=O)oc2c1 (stereo not drawn) [Compound 180, 3-(2-(7-(diethylamino)-4-methyl-2-oxo-2H-chromen-3-yl)ethyl)-7-(1H-imidazole-4-carbonyl)-1,3,7-triazaspiro[4.4]nonane-2,4-dione] | C (C ≥ 0.6)
6 | CCN(Cc1ccccc1)c1ccc2c(C)cc(=O)oc2c1 [Compound 35, 7-(benzyl(ethyl)amino)-4-methyl-2H-chromen-2-one] | A (A < 0.3))
7 | CCC(Oc1ccc2c(C)cc(=O)oc2c1)c1ccccc1 (stereo not drawn) [Compound 41, 4-methyl-7-(1-phenylpropoxy)-2H-chromen-2-one] | A (A < 0.3))
8 | CCN(CC)c1ccc2c(C)c(CCN3C(=O)NC4(CCN(C(=O)c5ccc[nH]c5=O)CC4)C3=O)c(=O)oc2c1 [Compound 178, 3-(2-(7-(diethylamino)-4-methyl-2-oxo-2H-chromen-3-yl)ethyl)-8-(2-oxo-1,2-dihydropyridine-3-carbonyl)-1,3,8-triazaspiro[4.5]decane-2,4-dione] | A (A < 0.3))
9 | CC(C)CC1NC(=O)N(CC(=O)Nc2ccc(C(F)(F)F)cc2)C1=O (single isomer, unassigned) [Compound 22] | A (A < 0.3))
10 | CCN(CC)c1ccc2cc(C#N)c(=N)oc2c1 [Compound 26, 7-(diethylamino)-2-imino-2H-chromene-3-carbonitrile] | A (A < 0.3))
11 | CCN(CC)c1ccc2c(C)c(CCN3C(=O)NC4(CCN(c5ncc(C(F)(F)F)cn5)C4)C3=O)c(=O)oc2c1 (stereo not drawn) [Compound 195, 3-(2-(7-(diethylamino)-4-methyl-2-oxo-2H-chromen-3-yl)ethyl)-7-(5-(trifluoromethyl)pyrimidin-2-yl)-1,3,7-triazaspiro[4.4]nonane-2,4-dione] | A (A < 0.3))
12 | Cc1ccccc1C(C)Oc1ccc2c(C)cc(=O)oc2c1 (stereo not drawn) [Compound 45, 4-methyl-7-(1-(o-tolyl)ethoxy)-2H-chromen-2-one] | A (A < 0.3))
13 | CCN(CC)c1ccc2c(C)c(CCNC(=O)NCc3ccc4ccccc4c3)c(=O)oc2c1 [Compound 292, 1-(2-(7-(diethylamino)-4-methyl-2-oxo-2H-chromen-3-yl)ethyl)-3-(naphthalen-2-ylmethyl)urea] | C (C ≥ 0.6)
14 | CCN(CC)c1ccc2c(C)c(CCC(=O)NCCc3ccncc3)c(=O)oc2c1 [Compound 76] | A (A < 0.3))
15 | CCN(CC)c1ccc2c(C)c(CCNC(=O)NCc3ccc4ccccc4n3)c(=O)oc2c1 [Compound 293, 1-(2-(7-(diethylamino)-4-methyl-2-oxo-2H-chromen-3-yl)ethyl)-3-(quinolin-2-ylmethyl)urea] | B (3 ≤ B < 0.6)
16 | CCN(CC)c1ccc2c(C)c(CCN3CC4(CCN(c5ccccc5)CC4)NC3=O)c(=O)oc2c1 [Compound 158, 3-(2-(7-(diethylamino)-4-methyl-2-oxo-2H-chromen-3-yl)ethyl)-8-phenyl-1,3,8-triazaspiro[4.5]decan-2-one] | B (3 ≤ B < 0.6)
17 | Cc1cc(=O)oc2cc(C(=O)NCCc3ccc(O)cc3)ccc12 [Compound 232, N-(4-hydroxyphenethyl)-4-methyl-2-oxo-2H-chromene-7-carboxamide] | A (A < 0.3))
18 | Cc1cc(=O)oc2cc(OCCC(C)c3ccccc3)ccc12 (stereo not drawn) [Compound 46, 4-methyl-7-(3-phenylbutoxy)-2H-chromen-2-one] | A (A < 0.3))
19 | CCN(CC)c1ccc2c(C)c(CCC(=O)NCCc3cccc(F)c3)c(=O)oc2c1 [Compound 72] | A (A < 0.3))
20 | C=C(C)CN(CC(=C)C)c1ccc2c(C)cc(=O)oc2c1 [Compound 243, 7-(bis(2-methylallyl)amino)-4-methyl-2H-chromen-2-one] | A (A < 0.3))

Other lines, results leading:

Row | Protection (fold protection of LC from protease) | SMILES
21 | A (A < 0.3)) | Cc1cc(=O)oc2cc(N(C)CCCF)ccc12 [Compound 258, 7-((3-fluoropropyl)(methyl)amino)-4-methyl-2H-chromen-2-one]
22 | A (A < 0.3)) | Cc1cc(=O)oc2cc(NC(C)c3ccccc3)ccc12 (stereo not drawn) [Compound 39, 4-methyl-7-((1-phenylethyl)amino)-2H-chromen-2-one]
23 | A (A < 0.3)) | CCN(CC)c1ccc2c(C)c(CCOC(=O)N3CCC(CO)C3)c(=O)oc2c1 (stereo not drawn) [Compound 106, 2-(7-(diethylamino)-4-methyl-2-oxo-2H-chromen-3-yl)ethyl 3-(hydroxymethyl)pyrrolidine-1-carboxylate]
24 | B (3 ≤ B < 0.6) | CCN(CC)c1ccc2c(C)c(CCNC(=O)NCc3cccc(CCC(=O)OC)c3)c(=O)oc2c1 [Compound 308, Methyl 3-(3-((3-(2-(7-(diethylamino)-4-methyl-2-oxo-2H-chromen-3-yl)ethyl)ureido)methyl)phenyl)propanoate]
25 | B (3 ≤ B < 0.6) | CCN(CC)c1ccc2c(C)c(CCNC(=O)NCc3cccc(-c4ccccc4)c3)c(=O)oc2c1 [Compound 284, 1-([1,1′-biphenyl]-3-ylmethyl)-3-(2-(7-(diethylamino)-4-methyl-2-oxo-2H-chromen-3-yl)ethyl)urea]
26 | A (A < 0.3)) | CCN(CC)c1ccc2c(C)c(CCOC(=O)N3CCN(c4nn[nH]n4)CC3)c(=O)oc2c1 [Compound 115, 2-(7-(diethylamino)-4-methyl-2-oxo-2H-chromen-3-yl)ethyl 4-(2H-tetrazol-5-yl)piperazine-1-carboxylate]
27 | A (A < 0.3)) | Cc1cc(=O)oc2cc(C(=O)NCc3ccccn3)ccc12 [Compound 226, 4-methyl-2-oxo-N-(pyridin-2-ylmethyl)-2H-chromene-7-carboxamide]
28 | A (A < 0.3)) | CCC(CC)c1ccc2c(C)cc(=O)oc2c1 [Compound 168, 4-methyl-7-(pentan-3-yl)-2H-chromen-2-one]
29 | A (A < 0.3)) | CCc1cc(=O)oc2cc(N(CC)CC)ccc12 [Compound 136, 7-(diethylamino)-4-ethyl-2H-chromen-2-one]
30 | B (3 ≤ B < 0.6) | CCN(CC)c1ccc2c(C)c(CCNC(=O)NCc3cnc4ccccc4c3)c(=O)oc2c1 [Compound 288, 1-(2-(7-(diethylamino)-4-methyl-2-oxo-2H-chromen-3-yl)ethyl)-3-(quinolin-3-ylmethyl)urea]
31 | A (A < 0.3)) | CCN(CC)c1ccc2c(C)c(CCOC(=O)NCCc3ccccc3)c(=O)oc2c1 [Compound 80, 2-(7-(diethylamino)-4-methyl-2-oxo-2H-chromen-3-yl)ethyl phenethylcarbamate]
32 | A (A < 0.3)) | CCN(CC)c1ccc2c(CCCOC(=O)NCc3ccncc3)cc(=O)oc2c1 [Compound 301, 3-(7-(diethylamino)-2-oxo-2H-chromen-4-yl)propyl (pyridin-4-ylmethyl)carbamate]
33 | C (C ≥ 0.6) | CCN(CC)c1ccc2c(C)c(CCOC(=O)NCc3cccnc3)c(=O)oc2c1 [Compound 89, 2-(7-(diethylamino)-4-methyl-2-oxo-2H-chromen-3-yl)ethyl (pyridin-3-ylmethyl)carbamate]
34 | B (3 ≤ B < 0.6) | CCN(CC)c1ccc2c(C)c(CCOC(=O)NCc3ccc(NC(C)=O)cn3)c(=O)oc2c1 [Compound 127, 2-(7-(diethylamino)-4-methyl-2-oxo-2H-chromen-3-yl)ethyl ((5-acetamidopyridin-2-yl)methyl)carbamate]
35 | A (A < 0.3)) | CCN(CCCc1ccccc1)c1ccc2c(C)cc(=O)oc2c1 [Compound 31, 7-(ethyl(3-phenylpropyl)amino)-4-methyl-2H-chromen-2-one]
36 | A (A < 0.3)) | CCN(CC)c1ccc2c(C)c(CCOC(=O)NCc3ccccc3)c(=O)oc2c1 [Compound 78, 2-(7-(diethylamino)-4-methyl-2-oxo-2H-chromen-3-yl)ethyl benzylcarbamate]
